pIC50: −log10 of the molar value. Where two headings read alike, the source gives them in different places.
What was measured:
[1] = system: tubulin isolated from calf brain; type: biochemical
Pat-21 breast carcinoma = system: Pat-21 breast carcinoma; parameters: species or system nude mice; settings: mouse, in vivo
[2] = system: Pat-26 human pancreatic carcinoma; assay: In vivo antitumor testing, Pat-26 xenograft
[3] = system: Pat-7 human ovarian carcinoma
[4] = system: A2780Tax ovarian carcinoma xenograft (mutated tubulin); parameters: species or system nude mice; settings: mouse, in vivo
HCT116/VM46 cells = type: cell-based, human
[5] = system: HCT116/VM46 human colon carcinoma xenograft; assay: In vivo antitumor testing, HCT116/VM46 xenograft
in vivo = settings: Balb/c nu/nu, mouse
[6] = In vivo antitumor testing, Pat-26 xenograft; settings: Balb/c nu/nu, mouse, in vivo, iv
[7] = In vivo antitumor testing, HCT116/VM46 xenograft; settings: Balb/c nu/nu, mouse, in vivo, iv
[8] = system: panel of tumor cell lines; assay: Cytotoxicity assay (tetrazolium-based colorimetric), panel of tumor cell lines; settings: 72 h, read-out: IC50 (median cytotoxic concentration)
[9] = paclitaxel, results obtained in separate studies

For Epothilone B [BMS-205535], the “Polymerization Potency, EC0.01” value [1] was 1.8 µM and the “Ratio of Polymerization Potency of Analog/Paclitaxel” value (“Ratio … of Analog/Paclitaxel” for short) [1] was 0.3.
For `CC(=O)O[C@H]1C(=O)[C@@]2(C)[C@H]([C@H](OC(=O)c3ccccc3)[C@]3(O)C[C@H](OC(=O)[C@H](O)[C@@H](NC(=O)c4ccccc4)c4ccccc4)C(C)=C1C3(C)C)[C@]1(OC(C)=O)CO[C@@H]1C[C@@H]2O` [Paclitaxel, paclitaxel, reference compound], the “LCK (gross log cell kill)” value (Pat-21 breast carcinoma) was 0.3, the “LCK (gross log cell kill)” value [2, 9] was 0.4 and the “LCK (gross log cell kill)” value [3, 9] was 0.8. The “LCK (gross log cell kill)” value [4] was 0.8, the “ratio of concentration (R/S or resistance ratio) to inhibit cell growth by 50%” value (HCT116/VM46 cells) was 155 fold and the “LCK (gross log cell kill)” value [5, 9] was 0.55.
In the case of `C/C(=C\c1csc(C)n1)[C@@H]1C[C@@H]2O[C@@H]2CCC[C@H](C)[C@H](O)[C@@H](C)C(=O)C(C)(C)[C@@H](O)CC(=O)O1` [BMS-212188, Epothilone A], the “Ratio … of Analog/Paclitaxel” value [1] was 0.4 and the “Polymerization Potency, EC0.01” value ([1]; concentration inducing initial slope of 0.01 OD/minute) was 2.0 µM.
In the case of `C/C(=C\c1csc(CN)n1)[C@@H]1C[C@@H]2O[C@]2(C)CCC[C@H](C)[C@H](O)[C@@H](C)C(=O)C(C)(C)[C@@H](O)CC(=O)O1` (relative stereo) [BMS-310705, [1S-[1R*,3R*(E),7R*,10S*,11R*,12R*,16S*]]-7,11-dihydroxy-8,8,10,12,16-pentamethyl-3-[1-methyl-2-(2-aminomethyl-4-thiazolyl)ethenyl]-4,17-dioxabicyclo[14.1.0]heptadecane-5,9-dione], the “LCK (gross log cell kill)” value (Pat-21 breast carcinoma) was over 4.1, the MTD (in vivo; iv) was 8 mg/kg and the MTD (in vivo; po, pH 8) was 90 mg/kg. For the same compound, the “LCK (gross log cell kill)” value ([2]; BMS-310705, IV, q4dx3 at OD 10 mg/kg, Expt. 968) was 1.2, the MTD [6] was 10 mg/kg and the “water solubility (in words)” value (Water solubility) was “highly water-soluble”. The “Polymerization Potency, EC0.01” value [1] was 7.4 µM, the “Ratio … of Analog/Paclitaxel” value [1] was 1.7 and the “tubulin polymerization potency relative to paclitaxel (fold more potent)” value [1] was “about 2.5 fold”. The “gross log cell kill (LCK)” value ([3]; BMS-310705 (PO), PO, q4dx3 at OD/MTD 90 mg/kg, Expt. 18) was 2.4, the “LCK (gross log cell kill)” value ([3]; BMS-310705, IV, q4dx3 at OD 8 mg/kg, Expt. 14) was 2.4 and the “antitumor activity given orally compared with IV administration (in words)” value ([3]; PO vs IV) was “equivalent to that produced by IV drug administration”. The “oral antitumor activity (in words)” value ([3]; PO, every 4 days x 3 schedule, FIG. 4) was “highly active orally”, the MTD [7] was 7.5 mg/kg and the “LCK (gross log cell kill)” value ([5]; BMS-310705, IV, q4dx3 at OD 7.5 mg/kg, Expt. 40) was 1.5. The pIC50 [8] was 8.46 to 9.05.

From patent US6727276B2, “Epothilone derivatives for the treatment of refractory tumors” (Bristol-Myers Squibb Company, priority 2001, dated 2004)
